This note sets out measurements from PubChem BioAssay (NCI).

Among the test systems are RPMI-8226 leukemia; SK-MEL-5 melanoma; SR leukemia; NCI-H460 lung; OVCAR-3 ovarian; U251 CNS; KM12 colon; UO-31 renal; LOX IMVI melanoma; MDA-N.
Holding throughout (assay): growth of human tumour cells (NCI), 48 h

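48-hour exposure; five concentrations; linearly interpolated endpoints. TGI denotes the concentration required for complete inhibition of growth.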 A value given as a limit tells only on which side of the number the result lay.

On to `Nc1nccc(NCC2(CO)CCC2)n1`, for which the TGI with RPMI-8226 leukemia, in the test with SK-MEL-5 melanoma, in the test with SR leukemia, in the test on NCI-H460 lung, in the test on OVCAR-3 ovarian and in the test with U251 CNS was more than 100 µM each time. For the same molecule, the TGI with KM12 colon, with UO-31 renal, in the test on LOX IMVI melanoma and with MDA-N was more than 100 µM in each case.

As for `Oc1ccccc1C1C=C(c2ccccc2)NC(N2CCCCC2)=C1c1nc2ccccc2[nH]1` (stereo not given), the TGI was 49 µM in the test on RPMI-8226 leukemia; 27 µM in the test with SK-MEL-5 melanoma; 35.3 µM with SR leukemia; 28 µM in the test with NCI-H460 lung; 29.8 µM in the test with OVCAR-3 ovarian; 28.4 µM with U251 CNS. For the same molecule, the TGI was 31.3 µM with KM12 colon, 23.7 µM with UO-31 renal, 31.2 µM in the test on LOX IMVI melanoma and 26.6 µM in the test with MDA-N.

As to `OCC(CCc1ccccc1I)C1=CCC2(CC1)OCCO2` (stereo not given), the TGI was more than 100 µM with RPMI-8226 leukemia; 27.8 µM in the test on SK-MEL-5 melanoma; more than 100 µM in the test on SR leukemia; 57.7 µM in the test with NCI-H460 lung; 41.3 µM in the test with OVCAR-3 ovarian; 41.8 µM in the test with U251 CNS. Further, the TGI with KM12 colon amounted to 31 µM; in the test with UO-31 renal, 41.1 µM; with LOX IMVI melanoma it was 29.1 µM; with MDA-N it was 36.5 µM.

Regarding `[O-][n+]1c(CN2CCCCC2)nc2cccc3c2c1-c1ccccc1-3`, the TGI in the test with RPMI-8226 leukemia was more than 100 µM; with SK-MEL-5 melanoma, 32.1 µM; in the test on SR leukemia, more than 100 µM; in the test with NCI-H460 lung, 46 µM; with OVCAR-3 ovarian it was 46.5 µM; with U251 CNS it was more than 100 µM. Further, the TGI in the test with KM12 colon was more than 100 µM; in the test on UO-31 renal it was 26.3 µM; in the test with LOX IMVI melanoma it was 46.8 µM; with MDA-N it was 58.4 µM.

Turning to `Cc1ccc(S(=O)(=O)[C@@H](Cl)[C@H]2N=C(Cl)NN=C2c2ccccc2)cc1`, the TGI in the test with RPMI-8226 leukemia is more than 100 µM; in the test on SK-MEL-5 melanoma, 34.5 µM; with SR leukemia it was more than 100 µM; in the test on NCI-H460 lung, more than 100 µM; with OVCAR-3 ovarian, 31.3 µM; in the test on U251 CNS, 55.9 µM. Further, the TGI in the test on KM12 colon came to 50 µM; with UO-31 renal it was 35.7 µM; in the test with LOX IMVI melanoma, 51.8 µM; with MDA-N, 74.4 µM.
